USRE50082E1, “(5,6-dihydro)pyrimido[4,5-e]indolizines” (NETHERLANDS TRANSLATIONAL RESEARCH CENTER B.V., priority 2014, dated 2024)

Tested on: MOLT-4 cancer cell line
Assay: Cell proliferation assay, MOLT-4 cancer cell line (ATPlite);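 also: luminescence read-out, percent growth versus compound-free DMSO wells as maximum growth, start-of-incubation signal separating growth from cell death, IC50 from logistic curve fit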
Format: cell-based
Settings: Homo sapiens, MOLT-4; 72 hours incubation, ATPlite 1Step; read-out: IC50 MOLT-4 cell proliferation
Protocol: 5 μL of compound solution was added and the plates were incubated for an additional 72 hours after which 25 μL of ATPlite 1Step™ (PerkinElmer, Groningen, The Netherlands) solution was added to each well. Luminescence was recorded on an Envision multimode reader. The cell signal at the start of incubation was recorded separately in order to distinguish between cell population growth and cell death. In addition, maximum growth was determined by incubation of a duplicate without compound in the presence of 0.4% DMSO. Percentage growth was used as the main y-axis signal. IC50s were fitted by non-linear regression using IDBS XLfit™5 using a 4-parameter logistic curve, yielding a maximum signal, minimum signal, hill-parameter and IC50.

Row | IC50 | Structure (SMILES)
1 | 50 to 150 nM | COc1cc(N2CCN(C)CC2)ccc1Nc1ncc2c(n1)-n1ccc(C(=O)Nc3c(C)nn(CC4CCO4)c3C)c1CC2 (centres unmarked) [Example 140, N-[3,5-dimethyl-1-(oxetan-2-ylmethyl)pyrazol-4-yl]-2-[2-methoxy-4-(4-methylpiperazin-1-yl)anilino]-5,6-dihydropyrimido[4,5-e]indolizine-7-carboxamide]
2 | < 50 nM | CCc1cccc(CC)c1NC(=O)c1ccn2c1CCc1cnc(Nc3ccc(N4CCNCC4)cc3C)nc1-2 [Example 80, N-(2,6-diethylphenyl)-2-(2-methyl-4-piperazin-1-yl-anilino)-5,6-dihydropyrimido[4,5-e]indolizine-7-carboxamide]
3 | < 50 nM | COc1cc(C(=O)N[C@@H]2CCNC[C@@H]2F)ccc1Nc1ncc2c(n1)-n1ccc(C(=O)Nc3c(C)cccc3C)c1CC2 [Example 118, N-(2,6-dimethylphenyl)-2-[4-[[(3S,4R)-3-fluoro-4-piperidyl]carbamoyl]-2-methoxy-anilino]-5,6-dihydropyrimido[4,5-e]indolizine-7-carboxamide]
4 | 50 to 150 nM | CCc1cccc(CC)c1NC(=O)c1ccn2c1CCc1cnc(Nc3cc(Cl)c(N4CCN(C)CC4)cc3OC)nc1-2 [Example 102, 2-[5-Chloro-2-methoxy-4-(4-methylpiperazin-1-yl)anilino]-N-(2,6-diethylphenyl)-5,6-dihydropyrimido[4,5-e]indolizine-7-carboxamide]
5 | 50 to 150 nM | COCCn1nc(C)c(NC(=O)c2ccn3c2CCc2cnc(Nc4ccc(OC5CNC5)cc4OC)nc2-3)c1C [Example 91, 2-[4-(Azetidin-3-yloxy)-2-methoxy-anilino]-N-[1-(2-methoxyethyl)-3,5-dimethyl-pyrazol-4-yl]-5,6-dihydropyrimido[4,5-e]indolizine-7-carboxamide]
6 | < 50 nM | COc1cc(N2CCN(C)CC2)ccc1Nc1ncc2c(n1)-n1ccc(C(=O)Nc3c(C)cccc3Br)c1CC2 [Example 73, N-(2-bromo-6-methyl-phenyl)-2-[2-methoxy-4-(4-methylpiperazin-1-yl)anilino]-5,6-dihydropyrimido[4,5-e]indolizine-7-carboxamide]
7 | < 50 nM | Cc1cccc(C)c1NC(=O)c1ccn2c1CCc1cnc(Nc3ccc(N4CCN(C)CC4)cc3OC(F)F)nc1-2 [Example 144, N-(2,6-dimethyl-phenyl)-2-[2-(difluoromethoxy)-4-(4-methylpiperazin-1-yl)anilino]-5,6-dihydropyrimido[4,5-e]indolizine-7-carboxamide]
8 | < 50 nM | COCCOCCOCCn1nc(C)c(NC(=O)c2ccn3c2CCc2cnc(Nc4ccc(OCCOC)cc4OC)nc2-3)c1C [Example 137, N-[1-[2-[2-(2-methoxyethoxy)ethoxy]ethyl]-3,5-dimethyl-pyrazol-4-yl]-2-[2-methoxy-4-(2-methoxyethoxy)anilino]-5,6-dihydropyrimido[4,5-e]indolizine-7-carboxamide]
9 | 50 to 150 nM | COc1cc(N2CCN(C)CC2)ccc1Nc1ncc2c(n1)-n1ccc(C(=O)Nc3c(C(C)C)cccc3C(C)C)c1CC2 [Example 11, N-(2,6-diisopropylphenyl)-2-[2-methoxy-4-(4-methylpiperazin-1-yl)anilino]-5,6-dihydropyrimido[4,5-e]indolizine-7-carboxamide]
10 | < 50 nM | COc1cc(OC2CCN(C)CC2)ccc1Nc1ncc2c(n1)-n1ccc(C(=O)Nc3c(C)cccc3Cl)c1CC2 [Example 41, N-(2-chloro-6-methyl-phenyl)-2-[2-methoxy-4-[(1-methyl-4-piperidyl)oxy]anilino]-5,6-dihydropyrimido[4,5-e]indolizine-7-carboxamide]
11 | < 50 nM | CCc1n[nH]c(CC)c1NC(=O)c1ccn2c1CCc1cnc(Nc3ccc(N4CCNCC4)cc3OC)nc1-2 [Example 18, N-(3,5-diethyl-1H-pyrazol-4-yl)-2-(2-methoxy-4-piperazin-1-ylanilino)-5,6-dihydropyrimido[4,5-e]indolizine-7-carboxamide]
12 | 50 to 150 nM | COc1cc(C(=O)NC2CNC2)ccc1Nc1ncc2c(n1)-n1ccc(C(=O)Nc3c(C)cccc3C)c1CC2 [Example 104, 2-[4-(Azetidin-3-ylcarbamoyl)-2-methoxy-anilino]-N-(2,6-dimethylphenyl)-5,6-dihydropyrimido[4,5-e]indolizine-7-carboxamide]
13 | < 50 nM | COc1cc(C(=O)NCC(C)(C)O)ccc1Nc1ncc2c(n1)-n1ccc(C(=O)Nc3c(C)cccc3C)c1CC2 [Example 1, N-(2,6-dimethylphenyl)-2-[4-[(2-hydroxy-2-methyl-propyl)carbamoyl]-2-methoxy-anilino]-5,6-dihydropyrimido[4,5-e]indolizine-7-carboxamide]
14 | 50 to 150 nM | CCc1cccc(CC)c1NC(=O)c1ccn2c1ccc1cnc(Nc3ccc(N4CCNCC4)cc3OC)nc12 [Example 77, N-(2,6-diethylphenyl)-2-(2-methoxy-4-piperazin-1-yl-anilino)pyrimido[4,5-e]indolizine-7-carboxamide]
15 | < 50 nM | COc1cc(N2CCN(C(=O)NC(C)C)CC2)ccc1Nc1ncc2c(n1)-n1ccc(C(=O)Nc3c(C)cccc3C)c1CC2 [Example 145, N-(2,6-dimethylphenyl)-2-[4-[4-(isopropylcarbamoyl)piperazin-1-yl]-2-methoxy-anilino]-5,6-dihydropyrimido[4,5-e]indolizine-7-carboxamide]
16 | < 50 nM | COCCn1nc(C)c(NC(=O)c2ccn3c2CCc2cnc(Nc4ccc(-c5c(C)nn(C)c5C)cc4OC)nc2-3)c1C [Example 94, N-[1-(2-methoxyethyl)-3,5-dimethyl-pyrazol-4-yl]-2-[2-methoxy-4-(1,3,5-trimethylpyrazol-4-yl)anilino]-5,6-dihydropyrimido[4,5-e]indolizine-7-carboxamide]
17 | 50 to 150 nM | CCc1n[nH]c(CC)c1NC(=O)c1ccn2c1CCc1cnc(Nc3ccc(OCCN(C)C)cc3OC)nc1-2 [Example 53, N-(3,5-diethyl-1H-pyrazol-4-yl)-2-[4-(2-dimethylaminoethyloxy)-2-methoxy-anilino]-5,6-dihydropyrimido[4,5-e]indolizine-7-carboxamide]
18 | < 50 nM | COc1cc(C(=O)N2CCC(C)(C#N)CC2)ccc1Nc1ncc2c(n1)-n1ccc(C(=O)Nc3c(C)cccc3C)c1CC2 [Example 129, 2-[4-(4-Cyano-4-methyl-piperidine-1-carbonyl)-2-methoxy-anilino]-N-(2,6-dimethylphenyl)-5,6-dihydropyrimido[4,5-e]indolizine-7-carboxamide]
19 | 50 to 150 nM | COc1cc(N2CCOCC2)ccc1Nc1ncc2c(n1)-n1ccc(C(=O)Nc3c(C)cccc3Br)c1CC2 [Example 3, N-(2-bromo-6-methyl-phenyl)-2-(2-methoxy-4-morpholino-anilino)-5,6-dihydropyrimido[4,5-e]indolizine-7-carboxamide]
20 | 50 to 150 nM | CCc1nn(CCOC)c(CC)c1NC(=O)c1ccn2c1CCc1cnc(Nc3ccc(C(=O)N(C)CCCN(C)C)cc3OC)nc1-2 [Example 88, N-[3,5-diethyl-1-(2-methoxyethyl)pyrazol-4-yl]-2-[4-[3-(dimethylamino)propyl-methyl-carbamoyl]-2-methoxy-anilino]-5,6-dihydropyrimido[4,5-e]indolizine-7-carboxamide]
21 | < 50 nM | Cc1cc(N2CCNCC2)ccc1Nc1ncc2c(n1)-n1ccc(C(=O)Nc3c(C)cccc3Cl)c1CC2 [Example 78, N-(2-chloro-6-methyl-phenyl)-2-(2-methyl-4-piperazin-1-yl-anilino)-5,6-dihydropyrimido[4,5-e]indolizine-7-carboxamide]
22 | < 50 nM | Cc1cc(N2CCN(C)CC2)ccc1Nc1ncc2c(n1)-n1ccc(C(=O)Nc3c(C)cccc3Br)c1CC2 [Example 65, N-(2-bromo-6-methyl-phenyl)-2-[2-methyl-4-(4-methylpiperazin-1-yl)anilino]-5,6-dihydropyrimido[4,5-e]indolizine-7-carboxamide]
23 | < 50 nM | Cc1cc(N2CCN(C)CC2)ccc1Nc1ncc2c(n1)-n1ccc(C(=O)Nc3c(C)cccc3Cl)c1CC2 [Example 2, N-(2-chloro-6-methyl-phenyl)-2-[2-methyl-4-(4-methylpiperazin-1-yl)anilino]-5,6-dihydropyrimido[4,5-e]indolizine-7-carboxamide]
24 | < 50 nM | Cc1cc(N2CCNCC2)ccc1Nc1ncc2c(n1)-n1ccc(C(=O)Nc3c(C)cccc3Br)c1CC2 [Example 81, N-(2-bromo-6-methyl-phenyl)-2-(2-methyl-4-piperazin-1-yl-anilino)-5,6-dihydropyrimido[4,5-e]indolizine-7-carboxamide]
25 | < 50 nM | COCCn1nc(C)c(NC(=O)c2ccn3c2ccc2cnc(Nc4ccc(N5CCNCC5)cc4OC)nc23)c1C [Example 96, N-[1-(2-methoxyethyl)-3,5-dimethyl-pyrazol-4-yl]-2-(2-methoxy-4-piperazin-1-yl-anilino)pyrimido[4,5-e]indolizine-7-carboxamide]
26 | < 50 nM | COc1cc(N2CCN(C)CC2)ccc1Nc1ncc2c(n1)-n1ccc(C(=O)Nc3c(C)cccc3C#N)c1CC2 [Example 133, N-(2-cyano-6-methyl-phenyl)-2-[2-methoxy-4-(4-methylpiperazin-1-yl)anilino]-5,6-dihydropyrimido[4,5-e]indolizine-7-carboxamide]
27 | < 50 nM | CCc1cccc(C)c1NC(=O)c1ccn2c1CCc1cnc(Nc3ccc(N4CCNCC4)cc3C)nc1-2 [Example 82, N-(2-ethyl-6-methyl-phenyl)-2-(2-methyl-4-piperazin-1-yl-anilino)-5,6-dihydropyrimido[4,5-e]indolizine-7-carboxamide]
28 | < 50 nM | Cc1cc(N2CCOCC2)ccc1Nc1ncc2c(n1)-n1ccc(C(=O)Nc3c(C)cccc3C)c1CC2 [Example 56, N-(2,6-dimethylphenyl)-2-(2-methyl-4-morpholino-anilino)-5,6-dihydropyrimido[4,5-e]indolizine-7-carboxamide]

Row | Structure (SMILES) | IC50
29 | COCC(=O)N1CCN(c2ccc(Nc3ncc4c(n3)-n3ccc(C(=O)Nc5c(C)cccc5C)c3CC4)c(OC)c2)CC1 [Example 105, N-(2,6-dimethylphenyl)-2-[2-methoxy-4-[4-(2-methoxyacetyl)piperazin-1-yl]anilino]-5,6-dihydropyrimido[4,5-e]indolizine-7-carboxamide] | < 50 nM
